Experimental data: patent publication US7875647B2, “Heteroaryl-pyrazole derivatives as cannabinoid CB1 receptor antagonists” (Green Cross Corporation, priority 2006, dated 2011)

What follows are molecules tested against T1, Cannabinoid-1 receptor (CB1R) (Rattus norvegicus, UniProt P20272) (assay: Cannabinoid-1 receptor (CB1R) binding affinity assay ([3H]CP-55940, rat CB-1 receptor binding protocol)). Conditions: IC50(nM), brain tissue of SD rats, [3H]CP-55940, 30° C. 60 min.
T1 construct: The tissue obtained from the brain of SD rats was homogenized; from tissue; host or cells: brain of SD rats (membrane pellet of the homogenate)
T1 sequence (P20272 whole entry): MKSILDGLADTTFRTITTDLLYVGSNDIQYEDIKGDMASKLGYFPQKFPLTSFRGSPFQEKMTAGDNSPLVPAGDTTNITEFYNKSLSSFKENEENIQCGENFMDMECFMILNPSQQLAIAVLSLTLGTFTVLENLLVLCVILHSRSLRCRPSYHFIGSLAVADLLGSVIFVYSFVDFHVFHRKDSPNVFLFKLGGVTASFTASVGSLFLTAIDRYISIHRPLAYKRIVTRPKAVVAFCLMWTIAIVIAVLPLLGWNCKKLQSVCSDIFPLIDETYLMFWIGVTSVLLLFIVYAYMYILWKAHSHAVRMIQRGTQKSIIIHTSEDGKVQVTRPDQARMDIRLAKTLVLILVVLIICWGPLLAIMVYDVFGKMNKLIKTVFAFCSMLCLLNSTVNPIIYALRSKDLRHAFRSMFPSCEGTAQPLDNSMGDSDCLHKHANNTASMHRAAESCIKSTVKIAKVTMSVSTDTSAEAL
`C=C(C)c1c(-c2nnc(C(C)(C)C)o2)nn(-c2ccc(Cl)cc2Cl)c1-c1ccc(Br)cc1` [Example 220, 2-(5-(4-bromophenyl)-1-(2,4-dichlorophenyl)-4-(prop-1-en-2-yl)-1H-pyrazol-3-yl)-5-tert-butyl-1,3,4-oxadiazole] gave an IC50 of 8.26 nM.

Same assay, conditions: brain tissue of SD rats, [3H]CP-55940, 30° C. 60 min; read-out: IC50
In the case of `CC(C)(C)c1nnc(-c2nn(-c3ccc(Cl)cc3Cl)c(-c3ccc(Br)cc3)c2C=O)o1` [Example 203, 5-(4-bromophenyl)-3-(5-tert-butyl-1,3,4-oxadiazol-2-yl)-1-(2,4-dichlorophenyl)-1H-pyrazole-4-carbaldehyde], the IC50 is reported as 18.8 nM.
In the case of `O=Cc1c(-c2nnc(C3(c4ccc(Cl)cc4)CC3)o2)nn(-c2ccc(Cl)cc2Cl)c1-c1ccc(Cl)cc1` [Example 204, 5-(4-chlorophenyl)-3-(5-(1-(4-chlorophenyl)cyclopropyl)-1,3,4-oxadiazol-2-yl)-1-(2,4-dichlorophenyl)-1H-pyrazole-4-carbaldehyde], the IC50 is reported as 5.39 nM.
Molecule `COCc1c(-c2nnc(C(C)(C)C)o2)nn(-c2ccc(Cl)cc2Cl)c1-c1ccc(Cl)cc1` [Example 205, 2-tert-butyl-5-(5-(4-chlorophenyl)-1-(2,4-dichlorophenyl)-4-(methoxymethyl)-1H-pyrazol-3-yl)-1,3,4-oxadiazole] has an IC50 of 15.4 nM.
In the case of `CCCCOCc1c(-c2nnc(C(C)(C)C)o2)nn(-c2ccc(Cl)cc2Cl)c1-c1ccc(Cl)cc1` [Example 206, 2-(4-(butoxymethyl)-5-(4-chlorophenyl)-1-(2,4-dichlorophenyl)-1H-pyrazol-3-yl)-5-tert-butyl-1,3,4-oxadiazole], the IC50 is reported as 113 nM.
Molecule `CC(O)c1c(-c2nnc(C(C)(C)C)o2)nn(-c2ccc(Cl)cc2Cl)c1-c1ccc(Cl)cc1` (centres unmarked) [Example 207, 1-(3-(5-tert-butyl-1,3,4-oxadiazol-2-yl)-5-(4-chlorophenyl)-1-(2,4-dichlorophenyl)-1H-pyrazol-4-yl)ethanol] has an IC50 of 10.1 nM.
`CC(O)c1c(-c2nnc(C(C)(C)C)o2)nn(-c2ccc(Cl)cc2Cl)c1-c1ccc(Br)cc1` (centres unmarked) [Example 208, 1-(5-(4-bromophenyl)-3-(5-tert-butyl-1,3,4-oxadiazol-2-yl)-1-(2,4-dichlorophenyl)-1H-pyrazol-4-yl)ethanol] showed an IC50 of 6.72 nM.
Work on `CC(O)c1c(-c2nnc(C3(c4ccc(Cl)cc4)CC3)o2)nn(-c2ccc(Cl)cc2Cl)c1-c1ccc(Cl)cc1` (centres unmarked) [Example 209, 1-(5-(4-chlorophenyl)-3-(5-(1-(4-chlorophenyl)cyclopropyl)-1,3,4-oxadiazol-2-yl)-1-(2,4-dichlorophenyl)-1H-pyrazol-4-yl)ethanol] yielded an IC50 of 5.77 nM.
Molecule `CC(F)c1c(-c2nnc(C(C)(C)C)o2)nn(-c2ccc(Cl)cc2Cl)c1-c1ccc(Cl)cc1` (centres unmarked) [Example 210, 2-tert-butyl-5-(5-(4-chlorophenyl)-1-(2,4-dichlorophenyl)-4-(1-fluoroethyl)-1H-pyrazol-3-yl)-1,3,4-oxadiazole] has an IC50 of 14.1 nM.
`CC(F)c1c(-c2nnc(C(C)(C)C)o2)nn(-c2ccc(Cl)cc2Cl)c1-c1ccc(Br)cc1` (centres unmarked) [Example 211, 2-(5-(4-bromophenyl)-1-(2,4-dichlorophenyl)-4-(1-fluoroethyl)-1H-pyrazol-3-yl)-5-tert-butyl-1,3,4-oxadiazole] was tested, and the IC50 was 12.1 nM.
Molecule `CC(F)c1c(-c2nnc(C3(c4ccc(Cl)cc4)CC3)o2)nn(-c2ccc(Cl)cc2Cl)c1-c1ccc(Cl)cc1` (centres unmarked) [Example 212, 2-(5-(4-chlorophenyl)-1-(2,4-dichlorophenyl)-4-(1-fluoroethyl)-1H-pyrazol-3-yl)-5-(1-(4-chlorophenyl)cyclopropyl)-1,3,4-oxadiazole] has an IC50 of 4.97 nM.
`CC(=O)c1c(-c2nnc(C(C)(C)C)o2)nn(-c2ccc(Cl)cc2Cl)c1-c1ccc(Cl)cc1` [Example 213, 1-(3-(5-tert-butyl-1,3,4-oxadiazol-2-yl)-5-(4-chlorophenyl)-1-(2,4-dichlorophenyl)-1H-pyrazol-4-yl)ethanone] was tested, and the IC50 was 49.4 nM.
With `CC(=O)c1c(-c2nnc(C(C)(C)C)o2)nn(-c2ccc(Cl)cc2Cl)c1-c1ccc(Br)cc1` [Example 214, 1-(5-(4-bromophenyl)-3-(5-tert-butyl-1,3,4-oxadiazol-2-yl)-1-(2,4-dichlorophenyl)-1H-pyrazol-4-yl)ethanone] the IC50 was 11.9 nM.
In the case of `CC(=O)c1c(-c2nnc(C3(c4ccc(Cl)cc4)CC3)o2)nn(-c2ccc(Cl)cc2Cl)c1-c1ccc(Cl)cc1` [Example 215, 1-(5-(4-chlorophenyl)-3-(5-(1-(4-chlorophenyl)cyclopropyl)-1,3,4-oxadiazol-2-yl)-1-(2,4-dichlorophenyl)-1H-pyrazol-4-yl)ethanone], the IC50 is reported as 10.8 nM.
`CC(=O)Oc1c(-c2nnc(C(C)(C)C)o2)nn(-c2ccc(Cl)cc2Cl)c1-c1ccc(Cl)cc1` [Example 216, 3-(5-tert-butyl-1,3,4-oxadiazol-2-yl)-5-(4-chlorophenyl)-1-(2,4-dichlorophenyl)-1H-pyrazol-4-yl acetate] was tested, and the IC50 was 57.3 nM.
For `CC(C)(C)c1nnc(-c2nn(-c3ccc(Cl)cc3Cl)c(-c3ccc(Cl)cc3)c2C(C)(C)O)o1` [Example 217, 2-(3-(5-tert-butyl-1,3,4-oxadiazol-2-yl)-5-(4-chlorophenyl)-1-(2,4-dichlorophenyl)-1H-pyrazol-4-yl)propan-2-ol], the IC50 was 22.6 nM.
Molecule `CC(C)(C)c1nnc(-c2nn(-c3ccc(Cl)cc3Cl)c(-c3ccc(Br)cc3)c2C(C)(C)O)o1` [Example 218, 2-(5-(4-bromophenyl)-3-(5-tert-butyl-1,3,4-oxadiazol-2-yl)-1-(2,4-dichlorophenyl)-1H-pyrazol-4-yl)propan-2-ol] has an IC50 of 17.1 nM.
`C=C(C)c1c(-c2nnc(C(C)(C)C)o2)nn(-c2ccc(Cl)cc2Cl)c1-c1ccc(Cl)cc1` [Example 219, 2-tert-butyl-5-(5-(4-chlorophenyl)-1-(2,4-dichlorophenyl)-4-(prop-1-en-2-yl)-1H-pyrazol-3-yl)-1,3,4-oxadiazole] gave an IC50 of 4.83 nM.
Molecule `CC(C)(C)c1nnc(-c2nn(-c3ccc(Cl)cc3Cl)c(-c3ccc(Cl)cc3)c2CF)o1` [Example 221, 2-tert-butyl-5-(5-(4-chlorophenyl)-1-(2,4-dichlorophenyl)-4-(fluoromethyl)-1H-pyrazol-3-yl)-1,3,4-oxadiazole] has an IC50 of 14.7 nM.
With `CC(C)(C)c1nnc(-c2nn(-c3ccc(Cl)cc3Cl)c(-c3ccc(Br)cc3)c2CF)o1` [Example 222, 2-(5-(4-bromophenyl)-1-(2,4-dichlorophenyl)-4-(fluoromethyl)-1H-pyrazol-3-yl)-5-tert-butyl-1,3,4-oxadiazole] the IC50 was 7.99 nM.
`FCc1c(-c2nnc(C3(c4ccc(Cl)cc4)CC3)o2)nn(-c2ccc(Cl)cc2Cl)c1-c1ccc(Cl)cc1` [Example 223, 2-(5-(4-chlorophenyl)-1-(2,4-dichlorophenyl)-4-(fluoromethyl)-1H-pyrazol-3-yl)-5-(1-(4-chlorophenyl)cyclopropyl)-1,3,4-oxadiazole] showed an IC50 of 7.89 nM.
Molecule `CC(C)(C)c1nnc(-c2nn(-c3ccc(Cl)cc3Cl)c(-c3ccc(Cl)cc3)c2C(F)F)o1` [Example 224, 2-tert-butyl-5-(5-(4-chlorophenyl)-1-(2,4-dichlorophenyl)-4-(difluoromethyl)-1H-pyrazol-3-yl)-1,3,4-oxadiazole] has an IC50 of 36.1 nM.
Work on `FC(F)c1c(-c2nnc(C3(c4ccc(Cl)cc4)CC3)o2)nn(-c2ccc(Cl)cc2Cl)c1-c1ccc(Cl)cc1` [Example 225, 2-(5-(4-chlorophenyl)-1-(2,4-dichlorophenyl)-4-(difluoromethyl)-1H-pyrazol-3-yl)-5-(1-(4-chlorophenyl)cyclopropyl)-1,3,4-oxadiazole] yielded an IC50 of 12.1 nM.
